Measurements reported in the supplement of paper PMC7108870.

How the values were obtained:
HEK293sieSTAT3(Y640F) [1] = assay: drug sensitivity score (DSS), cytotoxicity CellTox Green (DSS (dimensionless)); higher = more cytotoxic; extreme values may be limits of the assay; conditions: 72 h; STAT3 variant: Y640F (constitutively active)
Outline: (§1)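 In 384-well plates with acoustically pre-plated compounds (5 concentrations, 10-fold dilutions), 20 μl of HEK293 cells at 100,000 cells/ml were added; the cells overexpressed wild-type or mutant STAT3 and carried a STAT3-dependent luciferase reporter. Incubation lasted 72 hours at 37°C and 5% CO2 before sequential CellTox Green (485/520 nm) and CellTiter-Glo reads on a PHERAstar FS. After normalisation to negative and positive control wells, Breeze was used to derive a drug sensitivity score from the dose-response curve area.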

HEK293sieSTAT3(wt) [2] = assay: as above; conditions: 72 h; STAT3 variant: wild type
Outline: as §1

HEK293sieSTAT3(Y640F) [3] = assay: drug sensitivity score (DSS), viability CellTiter-Glo (DSS (dimensionless)); higher = more growth inhibition; extreme values may be limits of the assay; conditions: 72 h; STAT3 variant: Y640F (constitutively active)
Outline: as §1

HEK293sieSTAT3(wt) [4] = assay: as above; conditions: 72 h; STAT3 variant: wild type
Outline: as §1

SMILES | drug sensitivity score (HEK293sieSTAT3(Y640F) [1]) | drug sensitivity score (HEK293sieSTAT3(wt) [2]) | drug sensitivity score (HEK293sieSTAT3(Y640F) [3]) | drug sensitivity score (HEK293sieSTAT3(wt) [4])
C=CC(=O)Nc1cc2c(Nc3ccc(F)c(Cl)c3)ncnc2cc1OCCCN1CCOCC1 [Canertinib] (top concentration tested 10000 nM) | 6.41 | 7.96 | 6.3 | 8.37
CCCCCOC(=O)Nc1nc(=O)n([C@@H]2O[C@H](C)[C@@H](O)[C@H]2O)cc1F [Capecitabine] (top concentration tested 10000 nM) | 0 | 0 | 0 | 0
O=C(O)C1(C(=O)O)CCC1.[NH2-].[NH2-].[Pt+2] [Carboplatin] (top concentration tested 100000 nM) | 1.37 | 4.89 | 9.56 | 10.6
CC(C)C[C@H](NC(=O)[C@H](CCc1ccccc1)NC(=O)CN1CCOCC1)C(=O)N[C@@H](Cc1ccccc1)C(=O)N[C@@H](CC(C)C)C(=O)[C@@]1(C)CO1 [Carfilzomib] (top concentration tested 1000 nM) | 26.5 | 31.9 | 31.2 | 32.8
O=NN(CCCl)C(=O)NCCCl [Carmustine] (top concentration tested 10000 nM) | 0 | 0 | 3.24 | 1.45
COc1cc2c(Oc3ccc4[nH]c(C)cc4c3F)ncnc2cc1OCCCN1CCCC1 [Cediranib] (top concentration tested 1000 nM) | 0 | 0.26 | 1.03 | 1.46
Cc1ccc(-c2cc(C(F)(F)F)nn2-c2ccc(S(N)(=O)=O)cc2)cc1 [Celecoxib] (top concentration tested 10000 nM) | 0 | 0.02 | 0.58 | 4.14
CCS(=O)(=O)N1CCN(c2ccc(Nc3ncc(C(N)=O)c(NC4CC4)n3)cc2)CC1 [Cerdulatinib] (top concentration tested 10000 nM) | 0.63 | 7.28 | 6.32 | 9.09
Cc1cc(Nc2ncc(Cl)c(Nc3ccccc3S(=O)(=O)C(C)C)n2)c(OC(C)C)cc1C1CCNCC1 [Ceritinib] (top concentration tested 2500 nM) | 0 | 0.89 | 0.86 | 1.05
O=C(O)CCCc1ccc(N(CCCl)CCCl)cc1 [Chlorambucil] (top concentration tested 10000 nM) | 0 | 0 | 1.45 | 0.99
CCN(CC)CCCC(C)Nc1ccnc2cc(Cl)ccc12 (stereo not drawn) [Chloroquine] (top concentration tested 100000 nM) | 8.17 | 15.8 | 11 | 13
CC(C)[C@H]1C(=O)N[C@@H](CCCNC(=N)N)C(=O)NCC(=O)N[C@@H](CC(=O)O)C(=O)N[C@H](Cc2ccccc2)C(=O)N1C [Cilengitide] (top concentration tested 10000 nM) | 0 | 0 | 0 | 0
N.N.[Cl][Pt][Cl] [Cisplatin] (top concentration tested 100000 nM) | 5.83 | 6.89 | 19.6 | 18.9
Nc1nc(Cl)nc2c1ncn2[C@H]1C[C@H](O)[C@@H](CO)O1 [Cladribine] (top concentration tested 1000 nM) | 0 | 0.33 | 1.45 | 6.32
Nc1nc(Cl)nc2c1ncn2[C@@H]1O[C@H](CO)[C@@H](O)[C@@H]1F [Clofarabine] (top concentration tested 10000 nM) | 3.51 | 7.13 | 18.6 | 20.3
CCN(CC)CCOc1ccc(C(=C(Cl)c2ccccc2)c2ccccc2)cc1 [Clomifene] (top concentration tested 10000 nM) | 6.99 | 7.9 | 5.14 | 7.15
O=C(c1ccc(F)c(F)c1Nc1ccc(I)cc1F)N1CC(O)([C@@H]2CCCCN2)C1 [Cobimetinib] (top concentration tested 1000 nM) | 0 | 0 | 3.13 | 3.78
